The record followed here is BindingDB's records for doi:10.1016/j.bmc.2013.02.037 (Chungnam National University, 2013).

Where only a bound is given, the exact number is not on record here.

The nature of the test: Inhibition interleukin-5 in mouse Y16 cells after 48 hrs by WST-1 assay.
Molecule `O=c1c(CCC(O)c2ccc(C(F)(F)F)cc2)coc2cccc(OCC3CCCCC3)c12` (centres undefined) gave an IC50 of more than 30 µM.

Consider `O=C(CCC1COc2cccc(OCC3CCCCC3)c2C1=O)c1ccc(Cl)c(Cl)c1` (centres undefined), for which the IC50 was more than 30 µM.

Molecule `N#Cc1ccc(C(O)CCc2coc3cccc(OCC4CCCCC4)c3c2=O)cc1` (centres undefined) gave an IC50 of 15 µM.

`O=c1c(CCC(O)c2ccc(F)cc2)coc2cccc(OCC3CCCCC3)c12` (centres undefined) came in with an IC50 of 9 µM. This IC50 lies about 1.7-fold lower than the previous one.

`COc1ccc(C(O)CCc2coc3cccc(OCC4CCCCC4)c3c2=O)cc1` (centres undefined): the IC50 turned out to be 6.5 µM.

Regarding `O=c1c(CCC(O)c2ccccc2)coc2cccc(OCC3CCCCC3)c12` (centres undefined), half-maximal inhibition (IC50) was put at 12 µM.

In turn, `N#Cc1ccc(C(=O)CCc2coc3cccc(OCC4CCCCC4)c3c2=O)cc1` showed an IC50 of 17 µM.

`O=C(CCc1coc2cccc(OCC3CCCCC3)c2c1=O)c1ccc(Cl)cc1`: the IC50 came out at 14 µM.

Turning to `O=c1c(CCC(O)c2ccc(Cl)c(Cl)c2)coc2cccc(OCC3CCCCC3)c12` (centres undefined), it took 7.9 µM to reach half-maximal inhibition (IC50).

With `O=C(CCc1coc2cccc(OCC3CCCCC3)c2c1=O)c1ccc2ccccc2c1`, the IC50 is more than 30 µM.

`O=C(CCc1coc2cccc(OCC3CCCCC3)c2c1=O)c1ccc(F)cc1` yielded an IC50 of 20 µM. This counts as double-digit micromolar.

In the case of `O=C(CCc1coc2cccc(OCC3CCCCC3)c2c1=O)c1ccc(C(F)(F)F)cc1`, the 50% inhibitory concentration (IC50) was more than 30 µM.

`O=C(CCc1coc2cccc(OCC3CCCCC3)c2c1=O)c1ccc(Cl)c(Cl)c1` gave an IC50 of 22 µM.

Molecule `O=c1c(CCC(O)c2ccc(O)cc2)coc2cccc(OCC3CCCCC3)c12` (centres undefined) showed an IC50 of 4 µM.

Turning to `Cc1ccc(C(=O)CCc2coc3cccc(OCC4CCCCC4)c3c2=O)cc1`, the IC50 was more than 30 µM.

`COc1ccc(C(=O)CCc2coc3cccc(OCC4CCCCC4)c3c2=O)cc1` returned a half-maximal inhibitory concentration (IC50) of 16 µM.

For `O=C(CCc1coc2cccc(OCC3CCCCC3)c2c1=O)c1ccccc1`, the IC50 is more than 30 µM.

`CC(C)(C)c1ccc(C(=O)CCc2coc3cccc(OCC4CCCCC4)c3c2=O)cc1` gave an IC50 of more than 30 µM.

For the molecule `CC(C)(C)c1ccc(C(O)CCc2coc3cccc(OCC4CCCCC4)c3c2=O)cc1` (centres undefined), the IC50 was more than 30 µM.

In turn, `COc1ccc(C(=O)CCC2COc3cccc(OCC4CCCCC4)c3C2=O)cc1` (centres undefined) came in with a half-inhibitory concentration (IC50) of more than 30 µM.

In the case of `O=C(CCc1coc2cccc(OCC3CCCCC3)c2c1=O)c1ccc(O)cc1`, half-maximal inhibition (IC50) was put at 15 µM.

In turn, `O=c1c(CCC(O)c2ccc(Cl)cc2)coc2cccc(OCC3CCCCC3)c12` (centres undefined) displayed a half-maximal inhibitory concentration (IC50) of 9 µM.

As to `O=c1c(CCC(O)c2ccc3ccccc3c2)coc2cccc(OCC3CCCCC3)c12` (centres undefined), the IC50 is 17 µM.

In turn, `Cc1ccc(C(O)CCc2coc3cccc(OCC4CCCCC4)c3c2=O)cc1` (centres undefined) gave an IC50 of more than 30 µM.

The IC50 is the concentration that gives 50% inhibition.
